Values of other authors as cited in US20080305994A1, “Pharmaceutical Compositions and Method for Treating, Reducing, Ameliorating, Alleviating, or Preventing Dry Eye” (priority 2007, published 2008).

Experiments:
[1] = tested on: lipopolysaccharide ("LPS")-induced leukocyte recruitment within pulmonary arterioles, capillaries, and venules; conditions: rabbits, inhibition of PARP
[2] = tested on: intercellular adhesion molecule 1 ("ICAM-1"); conditions: rabbits; inhibition of PARP

For `NC(=O)c1cccc(N)c1` [3-aminobenzamide], the “LPS-induced leukocyte recruitment within pulmonary arterioles, capillaries, and venules” value [1] is listed as “reduced” and the “expression of intercellular adhesion molecule 1 (ICAM-1)” value [2] is listed as “suppressed”.
